Assay: Particle size of the compositions, tested initially, after 15 days and one month (stability studies)
Assay type: physicochemical
Details: Initial
Experimental: The particle size of the compositions of the invention were tested initially, after 15 days and one month. The compositions of the invention were then observed and tested for particle aggregation, settling, and flocculation on long term storage. The observations at one month, three months, 6 months, 9 months are as follows: […]

- Particle size D10: 1 µm
- Particle size D50: 3.3 µm
- Particle size D90: 9.1 µm
Compound: CCOC(=O)O[C@]1(C(=O)OCCl)CC[C@H]2[C@@H]3CCC4=CC(=O)C=C[C@]4(C)[C@H]3[C@@H](O)C[C@@]21C [API, Loteprednol etabonate]

Reference: patent US20230364012A1, “STABLE OPHTHALMIC COMPOSITION OF LOTEPREDNOL” (MANKIND PHARMA LTD., priority 2022, published 2023)
